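In this assay, cells in 96-well plates receive the compound at five concentrations for 48 hours. Endpoints are linearly interpolated between the surrounding concentrations. GI50: concentration for 50% inhibition of growth.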 The source made the active and inactive calls. Rule as the data show it: active = GI50 up to about 1.1 µM and inactive = higher.
Assays:
Experiment in all cases: NCI anticancer screen, dose series, 48 h
786-0 = tested on: 786-0
A498 = tested on: A498
A549 = tested on: A549
ACHN = tested on: ACHN
BT-549 = tested on: BT-549
CAKI-1 = tested on: CAKI-1
CCRF-CEM = tested on: CCRF-CEM
COLO 205 = tested on: COLO 205
DU-145 = tested on: DU-145
EKVX = tested on: EKVX
HCC 2998 = tested on: HCC 2998
HCT-116 = tested on: HCT-116
HCT-15 = tested on: HCT-15
HL-60 = tested on: HL-60
HOP-62 = tested on: HOP-62
HOP-92 = tested on: HOP-92
HT-29 = tested on: HT-29
Hs-578T = tested on: Hs-578T
IGROV-1 = tested on: IGROV-1
K562 = tested on: K562
KM12 = tested on: KM12
LOX IMVI = tested on: LOX IMVI
M14 = tested on: M14
MCF7 = tested on: MCF7
MDA-MB-231 = tested on: MDA-MB-231
MDA-MB-435 = tested on: MDA-MB-435
MDA-N = tested on: MDA-N
MOLT-4 = tested on: MOLT-4
Malme-3M = tested on: Malme-3M
NCI-H226 = tested on: NCI-H226
NCI-H23 = tested on: NCI-H23
NCI-H460 = tested on: NCI-H460
NCI-H522 = tested on: NCI-H522
NCI/ADR-RES = tested on: NCI/ADR-RES
OVCAR-3 = tested on: OVCAR-3
OVCAR-4 = tested on: OVCAR-4
OVCAR-5 = tested on: OVCAR-5
OVCAR-8 = tested on: OVCAR-8
PC-3 = tested on: PC-3
RPMI-8226 = tested on: RPMI-8226
RXF 393 = tested on: RXF 393
SF-268 = tested on: SF-268
SF-295 = tested on: SF-295
SF-539 = tested on: SF-539
SK-MEL-28 = tested on: SK-MEL-28
SK-MEL-2 = tested on: SK-MEL-2
SK-MEL-5 = tested on: SK-MEL-5
SN12C = tested on: SN12C
SNB-19 = tested on: SNB-19
SNB-75 = tested on: SNB-75
SR = tested on: SR
SW-620 = tested on: SW-620
T47D = tested on: T47D
U-251 = tested on: U-251
UACC-257 = tested on: UACC-257
UACC-62 = tested on: UACC-62
UO-31 = tested on: UO-31
SK-OV-3 = tested on: SK-OV-3
TK-10 = tested on: TK-10

For CCc1c(-c2ccc(OC)cc2)c(=O)oc2cc(O)ccc12, the GI50 (786-0) was 51.2 µM (inactive), the GI50 (A498) was 22.6 µM (inactive) and the GI50 (A549) was 27.3 µM (inactive). For the same compound, the GI50 (ACHN) was 27.7 µM (inactive), the GI50 (BT-549) was 25.1 µM (inactive) and the GI50 (CAKI-1) was 39.3 µM (inactive). For the same compound, the GI50 (CCRF-CEM) was 27.4 µM (inactive), the GI50 (COLO 205) was 28.2 µM (inactive) and the GI50 (DU-145) was 33.2 µM (inactive). The GI50 (EKVX) was 29.4 µM (inactive), the GI50 (HCC 2998) was 72.3 µM (inactive) and the GI50 (HCT-116) was 36.5 µM (inactive). For the same compound, the GI50 (HCT-15) was 25.9 µM, the GI50 (HL-60) was 16.7 µM (inactive) and the GI50 (HOP-62) was 54 µM (inactive). For the same compound, the GI50 (HOP-92) was 75.9 µM (inactive), the GI50 (HT-29) was 40.7 µM (inactive) and the GI50 (Hs-578T) was 30.7 µM (inactive). The GI50 (IGROV-1) was 42.4 µM (inactive), the GI50 (K562) was 29.8 µM (inactive) and the GI50 (KM12) was 37.2 µM (inactive). For the same compound, the GI50 (LOX IMVI) was 30.1 µM (inactive), the GI50 (M14) was 23.9 µM (inactive) and the GI50 (MCF7) was 32.7 µM (inactive). The GI50 (MDA-MB-231) was 57.5 µM (inactive), the GI50 (MDA-MB-435) was 27.6 µM (inactive) and the GI50 (MDA-N) was 28.1 µM (inactive). The GI50 (MOLT-4) was 16 µM (inactive), the GI50 (Malme-3M) was 25.5 µM (inactive) and the GI50 (NCI-H226) was 56.6 µM (inactive). For the same compound, the GI50 (NCI-H23) was 49.1 µM (inactive), the GI50 (NCI-H460) was 23.9 µM (inactive) and the GI50 (NCI-H522) was 29.5 µM (inactive). The GI50 (NCI/ADR-RES) was 22.1 µM (inactive), the GI50 (OVCAR-3) was 28.4 µM (inactive) and the GI50 (OVCAR-4) was 33.8 µM (inactive). For the same compound, the GI50 (OVCAR-5) was > 100 µM (inactive), the GI50 (OVCAR-8) was 49.1 µM (inactive) and the GI50 (PC-3) was 24.7 µM (inactive). The GI50 (RPMI-8226) was 18.6 µM (inactive), the GI50 (RXF 393) was 54.5 µM (inactive) and the GI50 (SF-268) was 41.5 µM (inactive). The GI50 (SF-295) was 35.6 µM (inactive), the GI50 (SF-539) was 44.1 µM (inactive) and the GI50 (SK-MEL-28) was 36.7 µM (inactive). For the same compound, the GI50 (SK-MEL-2) was > 100 µM (inactive), the GI50 (SK-MEL-5) was 14.8 µM (inactive) and the GI50 (SN12C) was 35.9 µM (inactive). For the same compound, the GI50 (SNB-19) was 56.1 µM (inactive), the GI50 (SNB-75) was 73.3 µM (inactive) and the GI50 (SR) was 16.7 µM (inactive). For the same compound, the GI50 (SW-620) was 51.3 µM (inactive), the GI50 (T47D) was 30.6 µM (inactive) and the GI50 (U-251) was 38.4 µM (inactive). For the same compound, the GI50 (UACC-257) was 25.9 µM (inactive), the GI50 (UACC-62) was 19.4 µM (inactive) and the GI50 (UO-31) was 19.9 µM (inactive).
In the case of COC1=CC(=O)C2=C(C1=O)[C@H]1CC[C@]3(C)C(=O)CC[C@H]3[C@@H]1CC2, the GI50 (786-0) is reported as 24.1 µM (inactive), the GI50 (A498) is reported as > 100 µM (inactive) and the GI50 (A549) is reported as 45.3 µM (inactive). The GI50 (ACHN) was 27.3 µM (inactive), the GI50 (BT-549) was 19.4 µM (inactive) and the GI50 (CAKI-1) was 25.8 µM (inactive). The GI50 (CCRF-CEM) was 3.62 µM (inactive), the GI50 (COLO 205) was 39.8 µM (inactive) and the GI50 (DU-145) was 25.3 µM (inactive). For the same compound, the GI50 (EKVX) was 16.7 µM (inactive), the GI50 (HCC 2998) was 54.1 µM (inactive) and the GI50 (HCT-116) was 18.5 µM (inactive). The GI50 (HCT-15) was 27.2 µM, the GI50 (HL-60) was 2.38 µM (inactive) and the GI50 (HOP-62) was 59.8 µM (inactive). For the same compound, the GI50 (HOP-92) was 19.8 µM (inactive), the GI50 (HT-29) was 26.3 µM (inactive) and the GI50 (Hs-578T) was 28.5 µM (inactive). The GI50 (IGROV-1) was 21.4 µM (inactive), the GI50 (K562) was 33.6 µM (inactive) and the GI50 (KM12) was 36.8 µM (inactive). For the same compound, the GI50 (LOX IMVI) was 18.6 µM (inactive), the GI50 (M14) was 30.4 µM (inactive) and the GI50 (MCF7) was 19 µM (inactive). For the same compound, the GI50 (MDA-MB-231) was 4 µM (inactive), the GI50 (MDA-MB-435) was 19.8 µM (inactive) and the GI50 (MDA-N) was 25.2 µM (inactive). For the same compound, the GI50 (MOLT-4) was 4.31 µM (inactive), the GI50 (NCI-H226) was 22.1 µM (inactive) and the GI50 (NCI-H23) was 27.1 µM (inactive). The GI50 (NCI-H460) was > 100 µM (inactive), the GI50 (NCI-H522) was 24.2 µM (inactive) and the GI50 (NCI/ADR-RES) was 20.1 µM (inactive). The GI50 (OVCAR-3) was 23.3 µM (inactive), the GI50 (OVCAR-4) was 15.8 µM (inactive) and the GI50 (OVCAR-5) was 20.3 µM (inactive). The GI50 (OVCAR-8) was 18.1 µM (inactive), the GI50 (PC-3) was 28.5 µM (inactive) and the GI50 (RPMI-8226) was 26.1 µM (inactive). For the same compound, the GI50 (RXF 393) was 28.1 µM (inactive), the GI50 (SF-268) was 21.5 µM (inactive) and the GI50 (SF-295) was 66.7 µM (inactive). For the same compound, the GI50 (SF-539) was 19.6 µM (inactive), the GI50 (SK-MEL-28) was 78 µM (inactive) and the GI50 (SK-MEL-2) was 18.7 µM (inactive). The GI50 (SK-MEL-5) was 18.5 µM (inactive), the GI50 (SK-OV-3) was > 100 µM (inactive) and the GI50 (SN12C) was 21.4 µM (inactive). The GI50 (SNB-19) was > 100 µM (inactive), the GI50 (SNB-75) was > 100 µM (inactive) and the GI50 (SR) was 34.9 µM (inactive). For the same compound, the GI50 (SW-620) was 26.4 µM (inactive), the GI50 (T47D) was 22.8 µM (inactive) and the GI50 (TK-10) was > 100 µM (inactive). For the same compound, the GI50 (U-251) was 32.2 µM (inactive), the GI50 (UACC-257) was 22.9 µM (inactive) and the GI50 (UACC-62) was 30.1 µM (inactive). For the same compound, the GI50 (UO-31) was 22.2 µM (inactive).
For CC[C@@H]([C@H](O)c1ccccc1Cl)[N+](=O)[O-], the GI50 (786-0) was > 100 µM (inactive), the GI50 (A498) was > 100 µM (inactive) and the GI50 (A549) was > 100 µM (inactive). The GI50 (ACHN) was > 100 µM (inactive), the GI50 (BT-549) was > 100 µM (inactive) and the GI50 (CAKI-1) was > 100 µM (inactive). The GI50 (CCRF-CEM) was 19.2 µM (inactive), the GI50 (COLO 205) was > 100 µM (inactive) and the GI50 (DU-145) was > 100 µM (inactive). For the same compound, the GI50 (EKVX) was > 100 µM (inactive), the GI50 (HCC 2998) was > 100 µM (inactive) and the GI50 (HCT-116) was 4.25 µM (inactive). For the same compound, the GI50 (HCT-15) was 1.33 µM, the GI50 (HL-60) was 7.82 µM (inactive) and the GI50 (HOP-62) was 54.6 µM (inactive). The GI50 (HOP-92) was > 100 µM (inactive), the GI50 (HT-29) was > 100 µM (inactive) and the GI50 (Hs-578T) was > 100 µM (inactive). For the same compound, the GI50 (IGROV-1) was > 100 µM (inactive), the GI50 (KM12) was > 100 µM (inactive) and the GI50 (LOX IMVI) was > 100 µM (inactive). The GI50 (M14) was > 100 µM (inactive), the GI50 (MCF7) was 16.4 µM (inactive) and the GI50 (MDA-MB-231) was > 100 µM (inactive). The GI50 (MDA-MB-435) was 25.8 µM (inactive), the GI50 (MDA-N) was 2.35 µM (inactive) and the GI50 (NCI-H226) was > 100 µM (inactive). For the same compound, the GI50 (NCI-H23) was > 100 µM (inactive), the GI50 (NCI-H460) was > 100 µM (inactive) and the GI50 (NCI-H522) was 90.4 µM (inactive). For the same compound, the GI50 (NCI/ADR-RES) was > 100 µM (inactive), the GI50 (OVCAR-3) was > 100 µM (inactive) and the GI50 (OVCAR-4) was > 100 µM (inactive). The GI50 (OVCAR-5) was > 100 µM (inactive), the GI50 (OVCAR-8) was > 100 µM (inactive) and the GI50 (PC-3) was 61.4 µM (inactive). For the same compound, the GI50 (RPMI-8226) was 91.8 µM (inactive), the GI50 (RXF 393) was > 100 µM (inactive) and the GI50 (SF-268) was > 100 µM (inactive). For the same compound, the GI50 (SF-295) was > 100 µM (inactive), the GI50 (SF-539) was 59 µM (inactive) and the GI50 (SK-MEL-28) was > 100 µM (inactive). The GI50 (SK-MEL-2) was > 100 µM (inactive), the GI50 (SK-MEL-5) was > 100 µM (inactive) and the GI50 (SK-OV-3) was > 100 µM (inactive). The GI50 (SN12C) was > 100 µM (inactive), the GI50 (SNB-19) was > 100 µM (inactive) and the GI50 (SNB-75) was 65.6 µM (inactive). The GI50 (SR) was 0.324 µM (active), the GI50 (SW-620) was 42.9 µM (inactive) and the GI50 (T47D) was > 100 µM (inactive). The GI50 (TK-10) was > 100 µM (inactive), the GI50 (U-251) was > 100 µM (inactive) and the GI50 (UACC-257) was > 100 µM (inactive). The GI50 (UACC-62) was > 100 µM (inactive) and the GI50 (UO-31) was > 100 µM (inactive).
